Data from patent US20250179047A1, “5-[7-(3,4-DIHYDRO-1H-ISOQUINOLINE-2-CARBONYL)-1,2,3,4 TETRAHYDROISOQUINOLIN-6-YL]-1H-PYRROLE-3-CARBOXAMIDE DERIVATIVES, PHARMACEUTICAL COMPOSITIONS CONTAINING THEM AND THEIR USES AS PRO-APOPTOTIC AGENTS” (LES LABORATOIRES SERVIER, priority 2022, published 2025).

Assays:
KMS12PE Bcl2 D103Y = experiment: In vitro cytotoxicity CellTiterGlo 72 h, KMS12PE Bcl2 D103Y; format: cell-based; conditions: Homo sapiens, KMS-12-PE, read-out: C50 nM, KMS12PE Bcl2 D103Y
Procedure: (§1) KMS-12-PE (ACC 606) were purchased from the Leibniz-Institute DSMZ (Braunschweig, Germany) and were grown at 37° C. in a humidified atmosphere with 5% CO2 in media recommended by the suppliers. Lentiviral particles containing Bcl-2 wild type (also named “Bcl2 WT”), Bcl-2 mutated on G101V (also named “Bcl2 G101V”), Bcl-2 mutated on D103Y (also named “Bcl2 D103Y”), Bcl-2 mutated on D103V (also named “Bcl2 D103V”), Bcl-2 mutated on D103E (also named “Bcl2 D103E”), Bcl-2 mutated on F104I (also named “Bcl2 F104I”), Bcl-2 mutated on F104L (also named “Bcl2 F104L”), Bcl-2 mutated on D111A (also named “Bcl2 D111A”), Bcl-2 mutated on A113G (also named “Bcl2 A113G”), Bcl-2 mutated on R129L (also named “Bcl2 R129L”), Bcl-2 mutated on V156D (also named “Bcl2 V156D”) were cloned into pcLV-CMV-DEST-IRES-TagRFP. Lentiviral particles (1×10^6) were mixed with Polybrene at 8 μg/ml and transduced by spinoculation for 1 h at 32° C. and incubated overnight. After 8 days, TagRFP positive-cells were sorted by FACS. BCL2 expression was monitored by immunoblotting using anti-Flag and anti-BCL2 antibodies. Cells were seeded into 96-wells plates and treated with 1:3.16 serial dilution of compounds (9 different concentrations). Cell viability was assessed using CellTiterGlo reagent following treatment for 72 h. Results were normalized to the viability of cells without compounds (control wells). The C50 values were calculated using nonlinear regression algorithms in XCell software.

KMS12PE Bcl2 A113G = experiment: In vitro cytotoxicity CellTiterGlo 72 h, KMS12PE Bcl2 A113G; format: cell-based; conditions: Homo sapiens, KMS-12-PE, read-out: C50 nM, KMS12PE Bcl2 A113G
Procedure: as §1

KMS12PE Bcl2 G101V = experiment: In vitro cytotoxicity CellTiterGlo 72 h, KMS12PE Bcl2 G101V; format: cell-based; conditions: Homo sapiens, KMS-12-PE, read-out: C50 nM, KMS12PE Bcl2 G101V
Procedure: as §1

KMS12PE = experiment: In vitro cytotoxicity CellTiterGlo 72 h, KMS12PE; format: cell-based; conditions: Homo sapiens, KMS-12-PE, read-out: C50 nM, KMS12PE
Procedure: as §1

KMS12PE Bcl2 F104I = experiment: In vitro cytotoxicity CellTiterGlo 72 h, KMS12PE Bcl2 F104I; format: cell-based; conditions: Homo sapiens, KMS-12-PE, read-out: C50 nM, KMS12PE Bcl2 F104I
Procedure: as §1

KMS12PE Bcl2 R129L = experiment: In vitro cytotoxicity CellTiterGlo 72 h, KMS12PE Bcl2 R129L; format: cell-based; conditions: Homo sapiens, KMS-12-PE, read-out: C50 nM, KMS12PE Bcl2 R129L
Procedure: as §1

KMS12PE Bcl2 D103V = experiment: In vitro cytotoxicity CellTiterGlo 72 h, KMS12PE Bcl2 D103V; format: cell-based; conditions: Homo sapiens, KMS-12-PE, read-out: C50 nM, KMS12PE Bcl2 D103V
Procedure: as §1

KMS12PE Bcl2 D103E = experiment: In vitro cytotoxicity CellTiterGlo 72 h, KMS12PE Bcl2 D103E; format: cell-based; conditions: Homo sapiens, KMS-12-PE, read-out: C50 nM, KMS12PE Bcl2 D103E
Procedure: as §1

KMS12PE Bcl2 F104L = experiment: In vitro cytotoxicity CellTiterGlo 72 h, KMS12PE Bcl2 F104L; format: cell-based; conditions: Homo sapiens, KMS-12-PE, read-out: C50 nM, KMS12PE Bcl2 F104L
Procedure: as §1

KMS12PE Bcl2 V156D = experiment: In vitro cytotoxicity CellTiterGlo 72 h, KMS12PE Bcl2 V156D; format: cell-based; conditions: Homo sapiens, KMS-12-PE, read-out: C50 nM, KMS12PE Bcl2 V156D
Procedure: as §1

KMS12PE Bcl2 D111A = experiment: In vitro cytotoxicity CellTiterGlo 72 h, KMS12PE Bcl2 D111A; format: cell-based; conditions: Homo sapiens, KMS-12-PE, read-out: C50 nM, KMS12PE Bcl2 D111A
Procedure: as §1

KMS12PE Bcl2 WT = experiment: In vitro cytotoxicity CellTiterGlo 72 h, KMS12PE Bcl2 WT; format: cell-based; conditions: Homo sapiens, KMS-12-PE, read-out: C50 nM, KMS12PE Bcl2 WT
Procedure: as §1

BCL2 G101V [1] = biological target: BCL2 G101V (Homo sapiens, UniProt P10415, G101V); experiment: TR-FRET competitive binding assay, BCL2 G101V; conditions: BCL2 G101V; Ki determined from IC50; read-out: TR_FRET EKI_Bcl2 G101V
Summary of the method: (§2)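 Competitive TR-FRET displacement of fluorescein-PUMA peptide (2 or 20 nM) from 0.5 nM terbium-labelled N-terminal Halo-fusion BCL2 (1-207, wild type or mutant) or BCLXL (2-196), expressed in E. coli. Buffer 50 mM Hepes pH 7.5, 150 mM NaCl, 5% DMSO; 2 h at 23°C. 520/495 nm ratio fitted over 11 points for IC50, converted to Ki.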

BCL2 G101V [2] = experiment: TR-FRET competitive binding assay, BCL2 G101V; parameters: species or system human; conditions: ratio Ki BCL2 G101V / Ki BCL2 WT
Summary of the method: as §2

BCL2 D103Y = BCL2 D103Y (Homo sapiens, UniProt P10415, D103Y); experiment: TR-FRET competitive binding assay, BCL2 D103Y; conditions: Ki determined from IC50, read-out: TR_FRET EKI_Bcl2 D103Y
Summary of the method: as §2

KMS-12-PE Bcl-2 G101V = experiment: In vitro cytotoxicity CellTiter-Glo 48 h, KMS-12-PE Bcl-2 G101V; format: cell-based; conditions: for Ratio (G101V/WT): C50 KMS-12-PE Bcl-2 G101V over C50 KMS-12-PE Bcl-2 WT; for IC50: Homo sapiens, KMS-12-PE, 48 h, CellTiter-Glo, C50 = concentration needed to reach 50% of the cellular viability
Summary of the method: (§3)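 CTG luminescence read-out; C50 = concentration reaching 50% cellular viability. Cells: KMS-12-PE expressing Bcl-2 WT or G101V (lentiviral, TagRFP-sorted). 11-pt curve, 48 h, 37 °C/5% CO2.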

BCL2 WT = BCL2 WT (Homo sapiens (Human), UniProt P10415); experiment: TR-FRET competitive binding assay, BCL2 WT; conditions: Ki determined from IC50, read-out: TR_FRET EKI_Bcl2 WT
Summary of the method: as §2

KMS-12-PE Bcl-2 WT = experiment: In vitro cytotoxicity CellTiter-Glo 48 h, KMS-12-PE Bcl-2 WT; format: cell-based; conditions: Homo sapiens, KMS-12-PE, C50 = concentration needed to reach 50% of the cellular viability
Summary of the method: as §3

BCLXL WT = BCLXL WT (Homo sapiens (Human), UniProt Q07817); experiment: TR-FRET competitive binding assay, BCLXL WT; conditions: for Ki: BCLXL WT, Ki determined from IC50, read-out: TR_FRET EKI BclxL; for TR_FRET EKI BCLxL/WT selectivty ratio: ratio Ki BCLxL / Ki BCL2 WT
Summary of the method: as §2

CYP3A4 = CYP3A4 (Homo sapiens (Human), UniProt P08684); experiment: CYP3A4 inhibition determination in hepatic human microsomes; format: in vitro ADME; conditions: LC/MS-MS of specific metabolite
Procedure: The inhibitory potential was determined on CYP3 Å4 enzyme using hepatic human microsomes. A range of concentrations (adapted based on the solubility) of the tested compound were incubated in presence of a substrate having a specific metabolite of CYP3 Å4 enzyme.
Then, the formation of the metabolite was quantified using LC/MS-MS analysis and a curve corresponding to the concentration of the metabolite in function of the concentration of the test compound allowed to the calculation of the IC50 value.

BCL2 F104I = BCL2 F104I (Homo sapiens, UniProt P10415, F104I); experiment: TR-FRET competitive binding assay, BCL2 F104I; conditions: Ki determined from IC50, read-out: TR_FRET EKI_Bcl2 F104I
Summary of the method: as §2

[3] = Pharmacokinetics in SCID mice; format: in vivo; conditions: 25 mg/kg IV bolus
Procedure: (§4) Pharmacokinetic (PK) and platelet toxicity were investigated in SCID mice. Compounds were administered at 25 mg/kg by IV bolus, and formulated in PEG/Ethanol/NaCl 0.9% (40/10/50 v/v/v).
(§5) Blood samples (3 animals/time point and 3 time points/animal) were collected over 24 h after dosing: 0.05 h, 0.5 h, 1 h, 3 h, 6 h and 24 h for PK and 6 h and 24 h for platelets.
(§6) PK samples were analyzed by liquid chromatography using tandem mass spectrometry detection (LC-MS/MS) and platelet count (109/L) was measured using an hematology analyzer. Percentage of platelet loss was calculated at both time points (T+6 h and 24 h) as compared to a control group of 6 animals. PK parameters (Cinf and AUC24, which correspond to the concentration at the end of bolus administration and the area under curve over 24 h, respectively) were also determined using a non-compartmental analysis.

platelets = experiment: Platelet depletion in SCID mice; format: in vivo; conditions: 25 mg/kg IV bolus, vs control group
Procedure: as §4, §5, §6

BCL2 D111A = BCL2 D111A (Homo sapiens, UniProt P10415, D111A); experiment: TR-FRET competitive binding assay, BCL2 D111A; conditions: Ki determined from IC50, read-out: TR_FRET EKI_Bcl2 D111A
Summary of the method: as §2

BCLXL WT, sequence (Q07817 other isoform, or with tags, fused parts or gaps): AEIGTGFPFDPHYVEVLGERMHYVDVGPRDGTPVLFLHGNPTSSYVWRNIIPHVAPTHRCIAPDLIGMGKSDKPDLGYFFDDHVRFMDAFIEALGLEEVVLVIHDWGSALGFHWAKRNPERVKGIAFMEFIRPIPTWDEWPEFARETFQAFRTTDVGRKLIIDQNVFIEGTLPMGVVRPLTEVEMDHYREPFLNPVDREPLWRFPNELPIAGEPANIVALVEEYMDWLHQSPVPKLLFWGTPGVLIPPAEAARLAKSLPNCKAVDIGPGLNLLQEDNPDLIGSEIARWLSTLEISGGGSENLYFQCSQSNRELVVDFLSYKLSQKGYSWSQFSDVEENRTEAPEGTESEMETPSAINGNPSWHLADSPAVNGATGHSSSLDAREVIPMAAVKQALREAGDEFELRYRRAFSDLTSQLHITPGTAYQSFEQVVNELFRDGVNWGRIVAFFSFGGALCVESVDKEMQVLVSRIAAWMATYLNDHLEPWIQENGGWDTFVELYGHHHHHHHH
CYP3A4, sequence (P08684 whole entry): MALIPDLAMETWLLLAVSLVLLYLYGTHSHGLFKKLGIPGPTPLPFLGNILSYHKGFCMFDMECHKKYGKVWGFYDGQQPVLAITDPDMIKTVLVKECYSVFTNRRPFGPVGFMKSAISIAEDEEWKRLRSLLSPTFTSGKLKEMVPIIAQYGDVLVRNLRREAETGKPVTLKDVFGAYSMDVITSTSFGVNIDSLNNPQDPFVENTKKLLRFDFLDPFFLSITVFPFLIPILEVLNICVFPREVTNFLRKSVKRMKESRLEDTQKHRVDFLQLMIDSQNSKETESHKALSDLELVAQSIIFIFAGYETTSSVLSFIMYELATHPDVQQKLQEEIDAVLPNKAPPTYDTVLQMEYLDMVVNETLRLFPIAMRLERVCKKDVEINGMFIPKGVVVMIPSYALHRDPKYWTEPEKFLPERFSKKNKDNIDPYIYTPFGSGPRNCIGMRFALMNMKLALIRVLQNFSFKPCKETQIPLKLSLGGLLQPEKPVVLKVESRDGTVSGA

Ki (BCL2 G101V [1]) | TR_FRET EKI G101V/WT selectivty ratio (BCL2 G101V [2]) | Ki (BCL2 D103Y) | Ki (BCL2 WT) | Ki (BCLXL WT) | TR_FRET EKI BCLxL/WT selectivty ratio (BCLXL WT) | IC50 (CYP3A4) | Structure (SMILES) | Ratio (G101V/WT) (KMS-12-PE Bcl-2 G101V) | IC50 (KMS-12-PE Bcl-2 G101V) | IC50 (KMS-12-PE Bcl-2 WT) | further results
– | – | – | – | – | – | – | CC1(C)CCC(CN2CCN(c3ccc(C(=O)NS(=O)(=O)c4ccc(NCC5CCOCC5)c([N+](=O)[O-])c4)c(Oc4cnc5[nH]ccc5c4)c3)CC2)=C(c2ccc(Cl)cc2)C1 [ABT199, Venetoclax, reference compound] | – | – | – | IC50 (KMS12PE Bcl2 D103Y): 1140 nM; IC50 (KMS12PE Bcl2 A113G): 120 nM; IC50 (KMS12PE Bcl2 G101V): 1050 nM; IC50 (KMS12PE): 5.5 nM; IC50 (KMS12PE Bcl2 F104I): 1300 nM; IC50 (KMS12PE Bcl2 R129L): 42.6 nM; IC50 (KMS12PE Bcl2 D103V): 590 nM; IC50 (KMS12PE Bcl2 D103E): 260 nM; IC50 (KMS12PE Bcl2 F104L): 1420 nM; IC50 (KMS12PE Bcl2 V156D): 139 nM; IC50 (KMS12PE Bcl2 D111A): 22.4 nM; IC50 (KMS12PE Bcl2 WT): 30.2 nM
1.3 nM | 7.6 | 0.48 nM | 0.17 nM | 3.2 nM | 18.8 | 12000 nM | Cc1c(N(C(=O)c2cc(-c3cc4c(cc3C(=O)N3Cc5ccccc5C[C@H]3C)CN(C(=O)c3ccccc3)CC4)n(C)c2C)c2ccc(O)cc2)cc(C#N)n1C [Example 25, 5-{2-benzoyl-7-[(3R)-3-methyl-1,2,3,4-tetrahydroisoquinoline-2-carbonyl]-1,2,3,4-tetrahydroisoquinolin-6-yl}-N-(5-cyano-1,2-dimethyl-1H-pyrrol-3-yl)-N-(4-hydroxyphenyl)-1,2-dimethyl-1H-pyrrole-3-carboxamide] | 12.4 | 0.0778 µM | 0.0063 µM | –
0.2 nM | 2.8 | 0.19 nM | 0.06 nM | 1.6 nM | 26.7 | – | Cc1c(N(C(=O)c2cc(-c3cc4c(cc3C(=O)N3Cc5ccccc5C[C@H]3C)CN(C(=O)Cc3ccc(OCCN5CCO[C@H](C)C5)cc3)CC4)n(C)c2C)c2ccc(O)cc2)cc(C#N)n1C [Example 56, N-(5-cyano-1,2-dimethyl-1H-pyrrol-3-yl)-N-(4-hydroxyphenyl)-1,2-dimethyl-5-{7-[(3R)-3-methyl-1,2,3,4-tetrahydroisoquinoline-2-carbonyl]-2-(2-{4-[2-((2R)-2-methylmorpholin-4-yl)ethoxy]phenyl}acetyl)-1,2,3,4-tetrahydroisoquinolin-6-yl}-1H-pyrrole-3-carboxamide] | 4.21 | 0.0201 µM | 0.0048 µM | Ki (BCL2 F104I): 0.28 nM; PK parameters Cinf ([3]; concentration at the end of bolus administration): 48.5 µM; AUC ([3]; mouse, blood, area under curve over 24 h, read-out: PK parameters AUC24): 30.5 µM·h; Platelet loss (%) 6 h (platelets; 6 h after dosing): 43.5%; Platelet loss (%) 24 h (platelets; 24 h after dosing): 26.9%; Ki (BCL2 D111A): 0.17 nM
0.1 nM | 4.7 | 0.07 nM | 0.02 nM | 1.9 nM | 105.6 | > 5000 nM | Cc1c(N(C(=O)c2cc(-c3cc4c(cc3C(=O)N3Cc5ccccc5C[C@H]3CN3CCCC3)CN(C(=O)Cc3ccc(OCCN(C)C5CC5)cc3F)CC4)n(C)c2C)c2ccc(O)cc2)cc(C#N)n1C [Example 101, N-(5-cyano-1,2-dimethylpyrrol-3-yl)-5-{2-[2-(4-{2-[cyclopropyl(methyl)amino]ethoxy}-2-fluorophenyl)acetyl]-7-{[(3S)-3-(pyrrolidin-1-ylmethyl)-3,4-dihydro-1H-isoquinolin-2-yl]carbonyl}-3,4-dihydro-1H-isoquinolin-6-yl}-N-(4-hydroxyphenyl)-1,2-dimethylpyrrole-3-carboxamide] | 4.86 | 0.0806 µM | 0.0166 µM | –
